Data published in US10988459B2 (priority 2015, dated 2021).

What follows are molecules tested against human RIP1 kinase domain (2-375) (Homo sapiens (Human), UniProt Q13546) (assay: biochemical). Details: Table 1; apparent Ki (Morrison tight-binding fit); 50 nM RIP1 kinase domain, 50 uM ATP, 2 hours incubation; read-out: RIP1 Ki.
Type: biochemical
How it was run: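 50 nM purified kinase domain from baculovirus-infected insect cells, incubated 2 h with compound in 50 mM Hepes pH 7.5, 30 mM MgCl2, 1 mM DTT, 50 uM ATP, 0.002% Brij-35, 0.5% DMSO. ADP formation read by Transcreener FP at 633 nm excitation. Ki^app fitted with the Morrison tight-binding equation.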

Chain of human RIP1 kinase domain (2-375) (Q13546 2-375): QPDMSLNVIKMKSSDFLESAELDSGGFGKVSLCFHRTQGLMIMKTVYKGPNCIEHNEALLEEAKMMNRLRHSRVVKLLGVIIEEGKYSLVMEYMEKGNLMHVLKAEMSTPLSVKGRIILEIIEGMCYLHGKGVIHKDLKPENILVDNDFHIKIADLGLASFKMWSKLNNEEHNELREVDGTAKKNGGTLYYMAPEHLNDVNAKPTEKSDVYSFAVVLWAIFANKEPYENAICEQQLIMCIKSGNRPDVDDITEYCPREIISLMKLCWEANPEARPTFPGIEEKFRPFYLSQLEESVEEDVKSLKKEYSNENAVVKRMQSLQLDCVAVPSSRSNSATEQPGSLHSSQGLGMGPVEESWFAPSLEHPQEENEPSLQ

| SMILES | Ki |
| --- | --- |
| CN1C(=O)[C@@H](NC(=O)c2n[nH]c3c2CC(c2ccccc2)OC3)COc2ccccc21 (stereo partly drawn) [Example 9, N—((S)-5-methyl-4-oxo-2,3,4,5-tetrahydrobenzo[b][1,4]oxazepin-3-yl)-5-phenyl-1,4,5,7-tetrahydropyrano[3,4-c]pyrazole-3-carboxamide] | 282 nM |
| CN1C(=O)[C@@H](NC(=O)c2ncn(Cc3ccccc3)n2)CCn2nccc21 [Example 73, (S)-1-benzyl-N-(4-methyl-5-oxo-5,6,7,8-tetrahydro-4H-pyrazolo[1,5-a][1,3]diazepin-6-yl)-1H-1,2,4-triazole-3-carboxamide] | 27 nM |
| CN1C(=O)[C@@H](NC(=O)c2ncn3c2CC(C(F)(F)F)CC3)COc2ccccc21 (stereo partly drawn) [Example 38, N-[(3S)-5-methyl-4-oxo-2,3-dihydro-1,5-benzoxazepin-3-yl]-7-(trifluoromethyl)-5,6,7,8-tetrahydroimidazo[1,5-a]pyridine-1-carboxamide] | 87.4 nM |

Same assay, conditions: Table 5; apparent Ki (Morrison tight-binding fit); 50 nM RIP1 kinase domain, 50 uM ATP, 2 hours incubation; read-out: Ki

| Ki | SMILES |
| --- | --- |
| 74 nM | CN1C(=O)[C@@H](NC(=O)c2nc3n(n2)CCN[C@@H]3c2ccccc2)COc2ccccc21 (single isomer, unassigned) [Example 729] |
| 14 nM | C[C@@]1(C(F)(F)F)OCc2cnc(C(=O)N[C@H]3CCc4cc(F)cc(F)c4NC3=O)cc21 [Example 748, (1R)-1-methyl-N-[(3S)-7,9-difluoro-2-oxo-1,3,4,5-tetrahydro-1-benzazepin-3-yl]-1-(trifluoromethyl)-3H-furo[3,4-c]pyridine-6-carboxamide] |

Same assay, conditions: human RIP1 kinase domain (2-375), 50 uM ATP, 2 hours incubation, Transcreener ADP assay; read-out: RIP1 Ki

| Ki | SMILES |
| --- | --- |
| 97.2 nM | CN1C(=O)C(NC(=O)c2cn(Cc3ccccc3)nn2)CCn2nc(-c3ccccc3)cc21 (centres unmarked) [Example 216, 1-benzyl-N-(4-methyl-5-oxo-2-phenyl-5,6,7,8-tetrahydro-4H-pyrazolo[1,5-a][1,3]diazepin-6-yl)-1H-1,2,3-triazole-4-carboxamide] |
| 22 nM | CN1C(=O)[C@@H](NC(=O)c2nnn3ccc(C(F)(F)F)cc23)COc2ccccc21 [Example 191, (S)—N-(5-methyl-4-oxo-2,3,4,5-tetrahydrobenzo[b][1,4]oxazepin-3-yl)-5-(trifluoromethyl)-[1,2,3]triazolo[1,5-a]pyridine-3-carboxamide] |

Same assay, conditions: human RIP1 kinase domain (2-375), Transcreener ADP assay, 50 uM ATP, 2 hours incubation; read-out: RIP1 Ki

| Ki | SMILES |
| --- | --- |
| 14.6 nM | CN1C(=O)[C@@H](NC(=O)c2ncn(Cc3cccc(Cl)c3Cl)n2)CCn2nc(C3CC3)cc21 [Example 306, (S)—N-(2-cyclopropyl-4-methyl-5-oxo-5,6,7,8-tetrahydro-4H-pyrazolo[1,5-a][1,3]diazepin-6-yl)-1-(2,3-dichlorobenzyl)-1H-1,2,4-triazole-3-carboxamide] |
| 3340 nM | CC[C@@]1(C)OCc2cnc(C(=O)N[C@H]3CCn4nc([C@@H]5CC5(F)F)cc4N(C)C3=O)cc21 [Example 325, (R)—N—((S)-2-((S)-2,2-difluorocyclopropyl)-4-methyl-5-oxo-5,6,7,8-tetrahydro-4H-pyrazolo[1,5-a][1,3]diazepin-6-yl)-1-ethyl-1-methyl-1,3-dihydrofuro[3,4-c]pyridine-6-carboxamide] |
| 1290 nM | CC[C@@]1(C)OCc2cnc(C(=O)N[C@@H]3CCn4nc([C@H]5CC5(F)F)cc4N(C)C3=O)cc21 [Example 324, (R)—N—((R)-2-((R)-2,2-difluorocyclopropyl)-4-methyl-5-oxo-5,6,7,8-tetrahydro-4H-pyrazolo[1,5-a][1,3]diazepin-6-yl)-1-ethyl-1-methyl-1,3-dihydrofuro[3,4-c]pyridine-6-carboxamide] |

Same assay, conditions: read-out: RIP1 Ki

| SMILES | Ki |
| --- | --- |
| C[C@@H]1CCc2[nH]nc(C(=O)N[C@H]3COc4ccccc4N(C)C3=O)c2C1 [Example 60, (R)-5-methyl-N-((S)-5-methyl-4-oxo-2,3,4,5-tetrahydrobenzo[b][1,4]oxazepin-3-yl)-4,5,6,7-tetrahydro-1H-indazole-3-carboxamide] | 15.6 nM |

Same assay, conditions: tight-binding apparent inhibition constant; human RIP1 kinase domain (2-375) 50 nM, 50 uM ATP, 2 hours; read-out: Ki

| Ki | SMILES |
| --- | --- |
| 10 nM | CC(C)c1cc2n(n1)CC[C@H](NC(=O)c1ncn(Cc3ccccc3)n1)C(=O)N2C [Example 458, (S)-1-Benzyl-N-(2-isopropyl-4-methyl-5-oxo-5,6,7,8-tetrahydro-4H-pyrazolo[1,5-a][1,3]diazepin-6-yl)-1H-1,2,4-triazole-3-carboxamide] |
| 227 nM | CC(C)[C@H]1CCCc2nc(C(=O)N[C@H]3COc4ccccc4N(C)C3=O)nn21 (single isomer, unassigned) [Example 413] |
| 709 nM | CN1C(=O)[C@@H](NC(=O)c2nc3n(n2)C(c2cnn(C)c2)CCC3)CCn2nccc21 (stereo partly drawn) [Example 397, 5-(1-methyl-1H-pyrazol-4-yl)-N—((S)-4-methyl-5-oxo-5,6,7,8-tetrahydro-4H-pyrazolo[1,5-a][1,3]diazepin-6-yl)-5,6,7,8-tetrahydro-[1,2,4]triazolo[1,5-a]pyridine-2-carboxamide] |
| 173 nM | CN1C(=O)[C@@H](NC(=O)c2nc3cccc(-c4ccoc4)n3n2)CCn2nccc21 [Example 389, (S)-5-(furan-3-yl)-N-(4-methyl-5-oxo-5,6,7,8-tetrahydro-4H-pyrazolo[1,5-a][1,3]diazepin-6-yl)-[1,2,4]triazolo[1,5-a]pyridine-2-carboxamide] |
| 2100 nM | CN1C(=O)[C@@H](NC(=O)c2nc3n(n2)[C@H](c2ccccc2)CCC3)CCn2nccc21 (single isomer, unassigned) [Example 384] |
| 5.7 nM | CN1C(=O)[C@@H](NC(=O)c2ncc3c(n2)C2(CCCC2)OC3)COc2ccccc21 [Example 482] |
| 48 nM | COc1ccccc1Cn1cnc(C(=O)N[C@H]2CCn3nc(C4CC4)cc3N(C)C2=O)n1 [Example 592] |
| 226 nM | CN1C(=O)[C@@H](NC(=O)c2nc3n(n2)[C@H](C(F)(F)F)CC3)CCn2nccc21 [Example 344, (5S)—N-[(6S)-4-methyl-5-oxo-7,8-dihydro-6H-pyrazolo[1,5-a][1,3]diazepin-6-yl]-5-(trifluoromethyl)-6,7-dihydro-5H-pyrrolo[1,2-b][1,2,4]triazole-2-carboxamide] |
| 54 nM | CN1C(=O)[C@@H](NC(=O)c2ncc3cnn(C4CCCOC4)c3n2)COc2ccccc21 (stereo partly drawn) [Example 563, N-[(3S)-5-methyl-4-oxo-2,3-dihydro-1,5-benzoxazepin-3-yl]-1-tetrahydropyran-3-yl-pyrazolo[3,4-d]pyrimidine-6-carboxamide] |
| 280 nM | Cc1cccnc1Cn1cnc(C(=O)N[C@H]2CCn3nc(C4CC4)cc3N(C)C2=O)n1 [Example 648] |

Further lines, the molecule ahead of its results:

| SMILES | Ki |
| --- | --- |
| CCC[C@H]1CCCc2nc(C(=O)N[C@H]3COc4cc(F)cc(F)c4NC3=O)nn21 (single isomer, unassigned) [Example 446] | 7.06 nM |
| CN1C(=O)[C@@H](NC(=O)c2ncc3c(n2)C(C)(C)S(=O)(=O)C3)COc2ccccc21 [Example 556, 7,7-dimethyl-6,6-dioxo-N-[(3S)-5-methyl-4-oxo-2,3-dihydro-1,5-benzoxazepin-3-yl]-5H-thieno[3,4-d]pyrimidine-2-carboxamide] | 2700 nM |
| O=C(N[C@H]1COc2cc(F)cc(F)c2NC1=O)c1nc2n(n1)[C@H](C(F)(F)F)CCC2 (single isomer, unassigned) [Example 432] | 12.7 nM |
| CC(C)[C@H]1CCCc2nc(C(=O)N[C@H]3COc4cc(F)cc(F)c4NC3=O)nn21 (single isomer, unassigned) [Example 447] | 207 nM |
| Cc1cc(F)c2c(c1)OC[C@H](NC(=O)c1nc3n(n1)[C@H](C(F)(F)F)CC3)C(=O)N2 [Example 347, (5S)—N-[(3S)-6-fluoro-8-methyl-4-oxo-3,5-dihydro-2H-1,5-benzoxazepin-3-yl]-5-(trifluoromethyl)-6,7-dihydro-5H-pyrrolo[1,2-b][1,2,4]triazole-2-carboxamide] | 4.91 nM |
